We go through 7 compounds from PubChem BioAssay (NCI).

Test systems include ACHN renal; HCT-116 colon; HCT-15 colon; HOP-92 NSCLC; HS 578T breast; KM12 colon; MCF7 breast; NCI-H23 lung; OVCAR-5 ovarian; RPMI-8226 leukemia.
What all share (assay): inhibition of tumour cell growth, NCI panel, 48 h

Structures are written as SMILES.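 The compound was tested at five concentrations on cells cultured in 96-well plates, with a 48-hour exposure period. GI50 marks 50% less growth. TGI: total growth inhibition.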 Bounds are passed on as bounds.

Take `O=C(/C=C1\N=C(c2ccccc2)N(c2nc3c(Cl)cc(Cl)cc3s2)C1=O)/C=C/c1ccccc1`: the TGI in the assay with ACHN renal, with HCT-116 colon, with HCT-15 colon, with HOP-92 NSCLC, in the assay with HS 578T breast and in the assay with KM12 colon was greater than 100 µM throughout. Moreover, the TGI in the assay on MCF7 breast, with NCI-H23 lung, in the assay with OVCAR-5 ovarian and with RPMI-8226 leukemia was greater than 100 µM in each case.
In the case of `Nc1cc(S(=O)(=O)O)cc2ccc(S(=O)(=O)O)cc12`, the TGI in the assay on ACHN renal, in the assay with HCT-116 colon, in the assay with HCT-15 colon, in the assay with HOP-92 NSCLC, in the assay with HS 578T breast and in the assay with KM12 colon was greater than 100 µM each time. Also, the TGI in the assay on MCF7 breast, in the assay on NCI-H23 lung, in the assay on OVCAR-5 ovarian and in the assay on RPMI-8226 leukemia was greater than 100 µM each time.
For the compound `CC1(C(=O)O)C[C@](C)(C(=O)OCc2ccccc2)C[C@](C)(C(=O)OCc2ccccc2)C1` (stereo not given in full), the TGI with ACHN renal turned out to be 57.5 µM; in the assay on HCT-116 colon, 57.9 µM; with HCT-15 colon, 85.9 µM; with HOP-92 NSCLC it was 54 µM; in the assay on HS 578T breast, 89.8 µM; in the assay on KM12 colon it was 99.5 µM. The TGI is greater than 100 µM in the assay with MCF7 breast, 56.6 µM in the assay with NCI-H23 lung, greater than 100 µM in the assay with OVCAR-5 ovarian and 72.6 µM with RPMI-8226 leukemia.
Take `Clc1ccc(Nc2nc(Nc3ccccc3)nc(Nc3ccc(-c4cc(-c5ccc(Cl)cc5)on4)cc3)n2)cc1`: the GI50 in the assay with ACHN renal is 21.9 µM; in the assay on HCT-116 colon it was 7.68 µM; in the assay on HCT-15 colon, 14.1 µM; with HOP-92 NSCLC it was 1.93 µM; with HS 578T breast, 11.4 µM; in the assay with KM12 colon, 13.5 µM. The GI50 with MCF7 breast was 12.2 µM; in the assay on NCI-H23 lung, 18.4 µM; with OVCAR-5 ovarian it was 20.9 µM; in the assay with RPMI-8226 leukemia it was 18.7 µM. Besides, the TGI in the assay on ACHN renal was greater than 100 µM; in the assay with HCT-116 colon, 26.5 µM; in the assay with HCT-15 colon, 84.8 µM; in the assay with HOP-92 NSCLC, 20 µM; in the assay with HS 578T breast, greater than 100 µM; with KM12 colon, 52.4 µM. The TGI in the assay with MCF7 breast is greater than 100 µM; with NCI-H23 lung, 60.4 µM; in the assay on OVCAR-5 ovarian, 89.1 µM; with RPMI-8226 leukemia it was greater than 100 µM.
Consider `O=C(Nc1ccc(-n2ccc3c(NC(=O)c4ccccc4)nccc32)cc1)Nc1cccc(C(F)(F)F)c1`, for which the GI50 in the assay on ACHN renal was 5.72 µM; in the assay on HCT-116 colon, 2.91 µM; with HCT-15 colon, 1.03 µM; in the assay on HOP-92 NSCLC, 2.59 µM; in the assay on HS 578T breast it was 6.39 µM; in the assay with KM12 colon, 0.41 µM. In addition, the GI50 was 6.61 µM with MCF7 breast, 3.28 µM with NCI-H23 lung, 8.72 µM in the assay on OVCAR-5 ovarian and 1.64 µM with RPMI-8226 leukemia. Besides, the TGI with ACHN renal was 19.6 µM; in the assay with HCT-116 colon, 10.1 µM; with HCT-15 colon, 6.55 µM; in the assay on HOP-92 NSCLC it was 11.7 µM; with HS 578T breast, 40 µM; in the assay on KM12 colon it was 11.3 µM. Moreover, the TGI was found to be 24.8 µM in the assay with MCF7 breast, 17.6 µM with NCI-H23 lung, 22.2 µM in the assay with OVCAR-5 ovarian and 4.81 µM with RPMI-8226 leukemia.
With `CN(C)C(=O)OC1=CC2CCC(C1)N2C` (stereo not given), the TGI in the assay with ACHN renal, in the assay with HCT-116 colon, in the assay with HCT-15 colon, in the assay with HOP-92 NSCLC, in the assay on HS 578T breast and in the assay with KM12 colon was greater than 100 µM throughout. Further, the TGI with MCF7 breast, in the assay on NCI-H23 lung, in the assay on OVCAR-5 ovarian and with RPMI-8226 leukemia was greater than 100 µM throughout.
Consider `O/C(=C\c1nc2ccccc2nc1/C=C(\O)c1ccc(F)cc1)c1ccc(F)cc1`, for which the TGI with ACHN renal, with HCT-116 colon, in the assay with HCT-15 colon, in the assay on HOP-92 NSCLC, in the assay on HS 578T breast and with KM12 colon was greater than 100 µM each time. Further, the TGI in the assay with MCF7 breast, with NCI-H23 lung, with OVCAR-5 ovarian and in the assay with RPMI-8226 leukemia was greater than 100 µM in each case.
